Data as given in ChEMBL document CHEMBL5260825, “Chemical Constituents of Bryophytes: Structures and Biological Activity” (J Nat Prod, 2018).
pIC50: −log10 of the molar value. Converted amounts (≈) assume the structure as drawn. “And” between values parts separate entries of the source, which are not always exact repeats. Equal values may be shown once.

What was measured:
[1] = target: T1, Alpha glucosidase (Homo sapiens) (UniProt O43451+P10253+P14410+Q2M2H8); test: Inhibition of alpha glucosidase (unknown origin) at 1 mM relative to control; format: protein assay
[2] = target: T1, Alpha glucosidase (Homo sapiens); test: Inhibition of alpha glucosidase (unknown origin) at 0.4 mM relative to control; format: protein assay
[3] = test system: Trichostrongylus colubriformis; test: Anthelmintic activity against third stage larvae of Trichostrongylus colubriformis at 0.7 mg/ml by microscope based analysis relative to control; format: functional
[4] = target: Prothrombin (Homo sapiens, UniProt P00734); test: Inhibition of thrombin (unknown origin)
[5] = test system: Phytophthora infestans; test: Antifungal activity against Phytophthora infestans assessed as inhibition of microbial growth by microtiter plate based analysis; format: functional, organism-based
[6] = test system: Cladosporium cucumerinum; test: Antifungal activity against Cladosporium cucumerinum assessed as inhibition of microbial growth by microtiter plate based analysis; format: functional, organism-based
[7] = test system: Pyricularia oryzae; test: Antifungal activity against Pyricularia oryzae assessed as inhibition of microbial growth; format: functional, organism-based
[8] = test system: Zymoseptoria tritici; test: Antifungal activity against Zymoseptoria tritici assessed as inhibition of microbial growth by microtiter plate based analysis; format: functional, organism-based
[9] = test system: Botrytis cinerea; test: Antifungal activity against Botrytis cinerea assessed as inhibition of microbial growth by microtiter plate based analysis; format: functional, organism-based
[10] = test system: Candida albicans; test: Antifungal activity against Candida albican assessed as reduction in fluconazole MIC by microdilution method; format: functional
[11] = target: Cyclooxygenase (Homo sapiens, UniProt P35354+P23219); test: Inhibition of COX (unknown origin); format: protein assay
[12] = test system: Trichostrongylus colubriformis; test: Anthelmintic activity against third stage larvae of Trichostrongylus colubriformis by microscope based analysis; format: functional, organism-based
[13] = test system: Trichostrongylus colubriformis; test: Anthelmintic activity against third stage larvae of Trichostrongylus colubriformis at 0.6 mg/ml by microscope based analysis relative to control; format: functional
[14] = Inhibition of superoxide anion radical release in rabbit polymorphonuclear leucocytes; format: functional, cell-based; settings: Oryctolagus cuniculus, Polymorphonuclear neutrophil
[15] = test system: Peritoneal macrophage cell; test: Inhibition of superoxide anion radical release in guinea pig peritoneal macrophages; format: functional, cell-based; settings: Cavia porcellus
[16] = target: Procathepsin L (Homo sapiens) (UniProt P07711); test: Inhibition of Cathepsin L (unknown origin) at 0.00001 M relative to control; settings: dose 10 µM
[17] = target: Cathepsin B (Homo sapiens) (UniProt P07858); test: Inhibition of Cathepsin B (unknown origin) at 0.00001 M relative to control; settings: dose 10 µM
[18] = test system: KB; test: Antiproliferative activity against human KB cells assessed as cell growth inhibition; format: functional, cell-based
[19] = test system: MCF7; test: Antiproliferative activity against human MCF7 cells assessed as cell growth inhibition; format: functional, cell-based
[20] = test system: Breast carcinoma cell; test: Antiproliferative activity against human Breast cancer cell line assessed as cell growth inhibition; format: functional, cell-based
[21] = test system: Bacillus subtilis; test: Antibacterial activity against Bacillus subtilis assessed as inhibition of bacterial growth; format: functional
[22] = test system: Acinetobacter calcoaceticus; test: Antibacterial activity against Acinetobacter calcoaceticus assessed as inhibition of bacterial growth; format: functional
[23] = test system: Bacillus cereus; test: Antibacterial activity against Bacillus cereus assessed as inhibition of bacterial growth; format: functional
[24] = test system: Priestia megaterium; test: Antibacterial activity against Bacillus megaterium assessed as inhibition of bacterial growth; format: functional
[25] = test system: Cryptococcus neoformans; test: […] activity against Cryptococcus neoformans assessed as inhibition of […]; format: functional
[26] = test system: Staphylococcus aureus; test: Antibacterial activity against Staphylococcus aureus assessed as inhibition of bacterial growth; format: functional
[27] = test system: Pasteurella multocida; test: Antibacterial activity against Pasteurella multocida assessed as inhibition of bacterial growth; format: functional
[28] = test system: Haemophilus influenzae; test: Antibacterial activity against Haemophilus influenzae assessed as inhibition of bacterial growth; format: functional
[29] = test system: Neisseria meningitidis; test: Antibacterial activity against Neisseria meningitidis assessed as inhibition of bacterial growth; format: functional
[30] = test system: Streptococcus pyogenes; test: Antibacterial activity against Streptococcus pyogenes assessed as inhibition of bacterial growth; format: functional
[31] = test system: Streptococcus viridans; test: Antibacterial activity against Streptococcus viridans assessed as inhibition of bacterial growth; format: functional
[32] = test system: Aspergillus niger; test: Antifungal activity against Aspergillus niger assessed as inhibition of microbial growth; format: functional
[33] = test system: Rhizoctonia solani; test: Antifungal activity against Rhizoctonia solani assessed as inhibition of microbial growth; format: functional
[34] = test system: Trichophyton mentagrophytes; test: Antifungal activity against Trichophyton mentagrophytes assessed as inhibition of microbial growth; format: functional
[35] = test system: Candida albicans; test: Antifungal activity against Candida albicans assessed as inhibition of fungal growth by MTT assay; format: functional
[36] = test system: Human immunodeficiency virus 1; test: Antiviral activity against HIV-1; format: functional, organism-based
[37] = target: T2, Polyunsaturated fatty acid 5-lipoxygenase (Homo sapiens) (UniProt P09917); test: Inhibition of ALOX5 (unknown origin) at 0.00001 M relative to control; settings: dose 10 µM
T2 sequence (whole entry): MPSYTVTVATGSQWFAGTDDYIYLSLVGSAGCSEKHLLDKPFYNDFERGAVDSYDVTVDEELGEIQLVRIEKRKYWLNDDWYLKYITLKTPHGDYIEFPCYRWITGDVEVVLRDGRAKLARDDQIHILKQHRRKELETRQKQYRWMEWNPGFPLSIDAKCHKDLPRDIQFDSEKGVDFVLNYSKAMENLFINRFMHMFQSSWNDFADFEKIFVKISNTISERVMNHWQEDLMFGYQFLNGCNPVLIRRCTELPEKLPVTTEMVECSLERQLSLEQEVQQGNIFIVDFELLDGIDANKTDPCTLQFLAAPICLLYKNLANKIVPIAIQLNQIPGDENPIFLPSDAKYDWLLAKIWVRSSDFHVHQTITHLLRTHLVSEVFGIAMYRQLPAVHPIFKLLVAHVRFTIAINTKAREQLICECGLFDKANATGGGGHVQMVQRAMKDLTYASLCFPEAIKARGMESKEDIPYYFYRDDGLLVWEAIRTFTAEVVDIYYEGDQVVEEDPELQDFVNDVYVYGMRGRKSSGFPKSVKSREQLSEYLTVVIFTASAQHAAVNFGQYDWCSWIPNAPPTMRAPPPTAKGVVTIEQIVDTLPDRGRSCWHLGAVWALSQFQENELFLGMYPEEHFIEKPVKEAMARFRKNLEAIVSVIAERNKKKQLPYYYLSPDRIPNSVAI

[38] = target: T2, Polyunsaturated fatty acid 5-lipoxygenase (Homo sapiens); test: Inhibition of ALOX5 (unknown origin) at 0.000001 M relative to control; settings: dose 1 µM
[39] = target: T2, Polyunsaturated fatty acid 5-lipoxygenase (Homo sapiens); test: Inhibition of ALOX5 (unknown origin) at 0.0000001 M relative to control; settings: dose 100 nM
[40] = target: T2, Polyunsaturated fatty acid 5-lipoxygenase (Homo sapiens); test: Inhibition of ALOX5 (unknown origin) at 0.00000001 M relative to control; settings: dose 10 nM
[41] = organism: Homo sapiens; test: Inhibition of LTB3 (unknown origin) at 0.00001 M relative to control; settings: dose 10 µM
[42] = organism: Homo sapiens; test: Inhibition of LTB3 (unknown origin) at 0.000001 M relative to control; settings: dose 1 µM
[43] = organism: Homo sapiens; test: Inhibition of LTB3 (unknown origin) at 0.0000001 M relative to control; settings: dose 100 nM
[44] = organism: Homo sapiens; test: Inhibition of LTB3 (unknown origin) at 0.00000001 M relative to control; settings: dose 10 nM
[45] = target: T2, Polyunsaturated fatty acid 5-lipoxygenase (Homo sapiens); test: Inhibition of ALOX5 (unknown origin) assessed as reduction in 5-HETE formation
[46] = target: T2, Polyunsaturated fatty acid 5-lipoxygenase (Homo sapiens); test: Inhibition of ALOX5 (unknown origin) assessed as reduction in calmodulin level
[47] = target: DNA polymerase beta (Homo sapiens, UniProt P06746); test: Inhibition of DNA polymerase beta (unknown origin)
[48] = Antioxidant activity assessed as DPPH radical scavenging activity; format: functional
[49] = organism: Rattus norvegicus; test: Inhibition of iron-induced lipid peroxidation in rat brain homogenate; format: functional
[50] = target: Calmodulin-1 (Homo sapiens) (UniProt P0DP23); test: Inhibition of calmodulin (unknown origin)
[51] = test system: Trypanosoma brucei brucei; test: Antitrypanosomal activity against bloodstream Trypanosoma brucei brucei assessed as parasite growth inhibition measured after 72 hrs by alamar blue assay; format: functional, organism-based
[52] = test system: Plasmodium falciparum; test: Antimalarial activity against drug sensitive Plasmodium falciparum NF54 assessed as inhibition of parasite growth; format: functional, organism-based
[53] = test system: Plasmodium falciparum; test: Antimalarial activity against drug sensitive Plasmodium falciparum KI assessed as inhibition of parasite growth; format: functional, organism-based
[54] = test system: Trypanosoma brucei rhodesiense; test: […] activity against drug sensitive Trypanosoma brucei rhodesiense assessed as inhibition of parasite growth; format: functional, organism-based
[55] = test system: Trypanosoma cruzi; test: […] activity against drug sensitive Trypanosoma cruzi assessed as inhibition of parasite growth; format: functional, organism-based
[56] = test system: Leishmania donovani; test: […] activity against drug sensitive Leishmania donovani assessed as inhibition of parasite growth; format: functional, organism-based
[57] = Inhibition of plasmodium falciparum fabZ

Procathepsin L (Homo sapiens), sequence (P07711 114-333 limits assumed): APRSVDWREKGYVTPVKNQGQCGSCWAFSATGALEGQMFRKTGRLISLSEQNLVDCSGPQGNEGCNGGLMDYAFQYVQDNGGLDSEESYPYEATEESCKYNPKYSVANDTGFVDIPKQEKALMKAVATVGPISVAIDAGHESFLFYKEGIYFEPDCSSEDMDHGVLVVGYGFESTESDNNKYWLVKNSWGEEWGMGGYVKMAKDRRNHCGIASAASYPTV

Oc1ccc2cc1Oc1ccc(cc1)CCc1cccc(O)c1Oc1cccc(c1)CC2
inhibition [1]: 52.2% | inhibition [2]: 100%

COc1ccc(CCc2cccc(OC)c2)cc1
inhibition at 700 µg/mL [3]: 85%

Oc1cccc(CCc2ccc(Oc3cc(CCc4cccc(O)c4)ccc3O)cc2)c1
pIC50 [4]: 4.74

Cc1cc2c(cc1O)[C@H](C)CC[C@@H]2C(C)C
IC50 [5]: 0.9 µg/mL | IC50 [6]: 11.8 µg/mL | IC50 [7]: 4.1 µg/mL | IC50 [8]: 10 µg/mL | IC50 [9]: 14.2 µg/mL

Oc1ccc2c(c1)CCc1ccc(cc1)Oc1cc(ccc1O)CCc1ccc-2c(O)c1 [RICCARDI C]
MIC [10]: 8 µg/mL | IC50 [11]: 53.5 µM

COc1cccc(CCc2ccc(O)cc2)c1
IC50 [12]: 130 µg/mL (≈ 569 µM) | inhibition at 600 µg/mL [13]: 85%

C=CC(=C)CC[C@]1(C)[C@H]2CCC=C(C)[C@]2(C)CC[C@H]1C(=O)O
IC50 [14]: 0.07 µg/mL (≈ 0.231 µM) | IC50 [15]: 25 µg/mL (≈ 82.7 µM) | inhibition [16]: 63% | inhibition [17]: 32%

Oc1cc2cc(c1O)Oc1ccc(cc1)CCc1cccc(O)c1Oc1cccc(c1)CC2 [MARCHANTIN A]
pIC50 [18]: 5.43 | IC50 [19]: 4 µg/mL and 11.5 µM | pIC50 [20]: 5.26 | MIC [21]: 25 µg/mL (≈ 56.8 µM) | MIC [22]: 6.25 µg/mL (≈ 14.2 µM) | MIC [23]: 12.5 µg/mL (≈ 28.4 µM) | MIC [24]: 25 µg/mL (≈ 56.8 µM) | MIC [25]: 12.5 µg/mL (≈ 28.4 µM) | MIC [26]: 3.13 µg/mL and 0.0069 µM | MIC [27]: 4.5 µM (≈ 1.98 µg/mL) | MIC [28]: 72.7 µM (≈ 32 µg/mL) | MIC [29]: 72.7 µM (≈ 32 µg/mL) | MIC [30]: 9.1 µM (≈ 4.01 µg/mL) | MIC [31]: 18.1 µM (≈ 7.97 µg/mL) | MIC [32]: 25 µg/mL | MIC [7]: 12.5 µg/mL | MIC [33]: 50 µg/mL | MIC [34]: 3.13 µg/mL | MID [35]: 2.5 µg/mL | IC50 [36]: 5.3 µg/mL (≈ 12 µM) | inhibition [37]: 89% | inhibition [38]: 94% | inhibition [39]: 45% | inhibition [40]: 16% | inhibition [41]: 99% | inhibition [42]: 97% | inhibition [43]: 70% | inhibition [44]: 40% | ID50 [45]: 1.85 µg/mL (≈ 4.2 µM) | ID50 [46]: 1.85 µg/mL (≈ 4.2 µM) | IC50 [11]: 46.4 µM | pIC50 [47]: 4.84 | IC50 [48]: 20 µg/mL (≈ 45.4 µM) | pIC50 [49]: 6.29 | ID50 [50]: 1.85 µg/mL (≈ 4.2 µM) | IC50 [51]: 0.27 µg/mL (≈ 0.613 µM) | pIC50 [52]: 5.47 | pIC50 [53]: 5.69 | pIC50 [54]: 5.68 | pIC50 [55]: 4.85 | pIC50 [56]: 5.80 | pIC50 [57]: 4.74

C=C(C=O)[C@@H]1[C@@H]2[C@H](CC[C@@]3(CO3)[C@@H]1C=O)C2(C)C
IC50 [14]: 6 µg/mL (≈ 24.2 µM) | IC50 [15]: 40 µg/mL (≈ 161 µM)
